Laboratory results published in US20080027008A1, “Antitumorigenic Drug Combination” (priority 2006, published 2008).

Tested on: Dogs with Lymphoma
Assay: Efficacy Study for Treatment of Dogs with Lymphoma
Assay type: in vivo
Conditions: treatment received population of dogs
Method: Twenty-five (25) dogs of varying sex, weight, breed and age (5.5-14.0 yrs) were entered for the study. […] All dogs entered for study had received prior chemotherapy and enrolled to the study following disease relapse.
All dogs were treated with N-[2-[(4-HYDROXYPHENYL)AMINO]-3-PYRIDYL]-4-METHOXYBENZENESULFONAMIDE at an initial dose of 350 mg/m2 PO QD for 7 days then treated at 350 mg/m2 EOD×21 days. If no significant objective response or doselimiting toxicities were noted after 28 days on therapy, a QD regimen was restarted for 7 days. Otherwise, dogs continued on EOD dosing until study discontinuation.
All dogs were treated with ABT-510 at a dose of 1 mg/kg SQ divided BID starting 24 hours after the first dose of N-[2-[(4-HYDROXYPHENYL)AMINO]-3-PYRIDYL]-4-METHOXYBENZENESULFONAMIDE was administered.
Dogs treated with N-[2-[(4-HYDROXYPHENYL)AMINO]-3-PYRIDYL]-4-METHOXYBENZENESULFONAMIDE and ABT-510 therapy were evaluated at Day 0, Day 7, Day 28 then every 28 days thereafter. Assessment of tumor burden was made based on measurement of target lymph nodes (no more than 3 nodes/animal). The lymph node volume (I×w×h) was calculated for each target lymph node and assessed as a sum of total tumor burden. Standard response endpoints were evaluated based on the criteria below: • Complete response (CR) is defined as disappearance of all clinical evidence of cancer and of any signs related to the cancer. • Partial response (PR) is defined as a 50% or greater decrease in the sum of the products of measurements for representative lesions, without an increase in size of any lesions or appearance of any new lesions. • Minimal response (MR) is defined as a 25% or greater decrease in the sum of the products of measurements for representative lesions, without an increase in size of any lesions or appearance of any new lesions. • Stable disease is defined as no response or a response of less than that defined for partial response or progressive disease without appearance of any new lesions or worsening of clinical signs. • Progressive disease is defined as an unequivocal increase of at least 50% in the size of any measurable lesion or appearance of new lesions.
The Intent-to-Treat population included all 25 dogs enrolled in the study. Five (5) dogs withdrew from the study early due to their inability to receive N-[2-[(4-HYDROXYPHENYL)AMINO]-3-PYRIDYL]-4-METHOXYBENZENESULFONAMIDE and ABT-510 longer than 7 days. Four (4) of these dogs withdrew due to rapid lymphoma progression. One (1) dog withdrew due to owner decision related to side effects while receiving study agents.
The Treatment Received population included dogs who received N-[2-[(4-HYDROXYPHENYL)AMINO]-3-PYRIDYL]-4-METHOXYBENZENESULFONAMIDE and ABT-510 therapy for longer than 7 days. […]

COc1ccc(S(=O)(=O)Nc2cccnc2Nc2ccc(O)cc2)cc1 [Single Agent, N-[2-[(4-HYDROXYPHENYL)AMINO]-3-PYRIDYL]-4-METHOXYBENZENESULFONAMIDE]
Response Duration, Mean (mean): Mean = 65 days | Time to Progression, Mean (mean): Mean = 21 days | Response Duration, Median (median): Median = 24 days | Time to Progression, Median (median): Median = 18 days
